Reference: US9540299B2, “MTOR-independent activator of TFEB for autophagy enhancement and uses thereof” (Hong Kong Baptist University, priority 2015, dated 2017)

How the values were obtained:
SH-SY5Y cells [1] = experiment: Western blot of TFEB, LC3-II, LAMP1, CTSD in SH-SY5Y cells; assay type: cell-based, human; settings: SH-SY5Y cells, 0.5, 1 μM, 12 h
Method: (§1) Various gene expressions in Hela cells (FIG. 7A) and SH-SY5Y cells (FIG. 7B) after treated with C1 (1 μM) for 12 h. mRNA transcript abundance is assessed by real-time PCR using specific primers for the indicated genes. Relative quantification (RQ) is presented as means±SD of three independent experiments. FIG. 7C is western blot showing the protein levels of autophagy marker (LC3-II), TFEB and lysosome markers (LAMP1, CTSD) in Hela and SH-SY5Y cells having treated with C1 (0.5, 1 μM) or sucrose (100 mM) for 12 h. The relative intensity of autophagy marker (LC3-II), TFEB and lysosome markers (LAMP1, CTSD) normalized to that of ACTB/β-actin in Hela cells (FIG. 7D) and SH-SY5Y cells (FIG. 7E). Data are presented as the mean±SD from three independent experiments. *p<0.05 vs. the control (0.1% DMSO). […] Autophagy-enhancing effect of C1 is TFEB-dependent. Data are presented as the mean±SD from three independent experiments. *p<0.05 vs. the control. N. S.=not significant.
N2a, Hela and Hela cells stably expressing 3×-Flag-TFEB are cultured in DMEM supplemented with 10% FBS. SH-SY5Y cells are cultured in DMEM/F12 supplemented with 10% FBS. […]
Cells are lysed on ice in 1× Lysis Buffer (9803, Life Technologies) with complete protease inhibitor mixture (04693124001, Roche Applied Science). […] The protein signals are detected by ECL kit (32106, Pierce) and quantified using ImageJ software.

endogenous SNCA = experiment: Chronic (21 days) oral administration in SD rats: autophagy markers, SNCA, tolerability; assay type: in vivo; settings: oral 10 mg/kg for 21 days
Method: SD rats (n=6 per group) are orally administered by gavage with C1 (10 mg/kg per day) or vehicle (1% CMC-Na) for 21 days. An additional dosage of C1 is given for 6 h before the rats are killed. FIG. 11A is western blots showing the protein levels as indicated in the liver, frontal cortex and striatum. FIG. 11B-11D are quantitative data protein levels in the liver frontal cortex and striatum. Data are presented as the mean±SD (n=6). *p<0.05 vs. the vehicle treatment.
All animal care and procedures are approved by the Hong Kong Baptist University Committee on the Use of Human and Animal Subjects in Teaching and Research. Adult male Sprague-Dawley (SD) rats weighted 350-400 g are maintained on ad libitum food and water with a 12-hour light/dark cycle in a controlled environment. For short-term treatment, rats (n=6 per group) are orally administered by gavage with C1 (10 mg/kg and 25 mg/kg per day) or vehicle (1% sodium carbonyl methylcellulose (CMC-Na)) for 24 h. For chronic treatment, C1 (10 mg/kg per day) is given by gavage to rats for 21 days. At the end of each treatment, an additional dosage of C1 is given for 6 h before the rats are killed. Livers and major brain regions dissected are snap-frozen in liquid nitrogen.
Cells are lysed on ice in 1× Lysis Buffer (9803, Life Technologies) with complete protease inhibitor mixture (04693124001, Roche Applied Science). Animal tissues are homogenized in nine volumes of ice-cold PBS supplemented with protease inhibitors. Cytosolic and nuclear fractions are isolated using protocols similar to those described previously. Anti-Flag or TFEB antibody is added to the whole cell lysates and Dynabeads® Protein G (10003D, Life Technologies) is used for immunoprecipitation. Proteins are separated by 10-15% SDS-PAGE, transferred, and blotted with the antibodies described. The blots are then incubated with secondary antibodies or the Clean-Blot IP Detection Reagent (21230, Thermo Scientific) at room temperature for 1 h. The protein signals are detected by ECL kit (32106, Pierce) and quantified using ImageJ software.
Rats receive oral administration of C1 (10 mg/kg) for 21 days. Another dose of C1 is given for 6 h and the average concentration of C1 in brain tissues is 0.849±0.302 μg/g. Then the autophagy markers in the livers and brains are analyzed. Chronic C1 treatment increases the levels of LC3-II in the livers (FIGS. 11 A and B). […] During the treatment procedure, no changes in body weight or behavior abnormalities are observed.

SH-SY5Y cells [2] = experiment: Real-time PCR of autophagy and lysosome genes in SH-SY5Y cells; assay type: cell-based, human; settings: 1 μM, 12 h
Method: as §1
Total RNA is extracted from cells and tissues using RNeasy Plus Mini Kit (74134, Qiagen). Reverse transcription is performed using High-Capacity cDNA Reverse Transcription Kit (4368814, Life Technologies). […] Fold changes are calculated using the ΔΔCT method and the results were normalized against an internal control (GAPDH or ACTB).

human P301S tau = experiment: Oral treatment of P301S tau transgenic mice: Tau species in brain; assay type: in vivo; settings: immunostaining of brain slices
N2a cells = experiment: LysoTracker Red staining of N2a cells (lysosomal pH); assay type: cell-based, mouse; settings: 1 μM, 12 hours
Method: N2a cells are treated with E4 (1 μM) in the presence or absence of lysosome inhibitor CQ or Torin 1 for 12 hours, the cells are loaded with LysoTracker Red, followed by taking pictures under a fluorescence microscope (FIG. 26A). The relative fluorescent intensity is quantified by using image J software (FIG. 26B). Quantification data are presented as the mean±SD from three independent experiments (low panel). **p<0.01 vs. the control (0.1% DMSO). ## p<0.05 vs. the relative absence of CQ group.
After transiently knockdown the expression of TFEB, N2a cells are treated with E4 (1 μM) for 12 hours, lysosomal activities are then detected by LysoTracker Red staining (FIG. 30A). Quantification data (FIG. 30B) are presented as the mean±SD from three independent experiments. **p<0.01 vs. the control (0.1% DMSO). ## p<0.05 vs. the relative Si-NT group.
N2a cells are transfected with mouse Tfeb siRNA and the non-target siRNA using Lipofectamine RNAiMAX (13778030, Invitrogen) and incubated at 37° C. for 72 hours.
The lysosomal pH is estimated using LysoTracker Red following manufacturer's instructions. The fluorescence intensity is observed under a DeltaVision Deconvolution Microscope (GE Healthcare) and representative cells are selected and photographed. Quantification data are acquired using ImageJ software.

| Compound | autophagy/lysosomal biogenesis (LC3-II, LAMP1, CTSD protein levels) (SH-SY5Y cells [1]) | protein levels of TFEB (SH-SY5Y cells [1]) | body weight or behavior abnormalities during treatment (endogenous SNCA) | histological evaluation of major organs (liver, lungs, kidneys, and pancreas) (endogenous SNCA) | levels of LC3-II in the livers (endogenous SNCA) | levels of TFEB and LC3-II in frontal cortex and striatum (endogenous SNCA) | levels of endogenous SQSTM1/p62 and SNCA in rats' brains (endogenous SNCA) | mRNA of TFEB and genes involved in autophagy and lysosome biogenesis (SH-SY5Y cells [2]) | AT8 and PHF1 positive cells in the hippocampus and cortex (human P301S tau) | LysoTracker Red fluorescent intensity compared with vehicle control (N2a cells) | induced increase in LysoTracker Red fluorescence intensity on co-treatment with CQ (N2a cells; with CQ) |
| --- | --- | --- | --- | --- | --- | --- | --- | --- | --- | --- | --- |
| COc1ccccc1/C=C/C(=O)/C=C/c1ccccc1OC [C1, 1,5-bis(2-methoxyphenyl)penta-1,4-dien-3-one] | activated | increased | no changes | do not reveal any morphological abnormalities | increases | significantly increases | significantly decrease | up-regulated | dramatically reduced | – | – |
| O=C(/C=C/c1ccccc1I)/C=C/c1ccccc1I [E4] | – | – | – | – | – | – | – | – | – | significantly increases | abolishes |
